The text below walks through data of paper PMC9497102, “Thiosemicarbazone Derivatives Developed to Overcome COTI-2 Resistance” (Cancers, 2022).

In data set [1] the test system is GLC-4/adr cells (ABCC1-overexpressing). Kind of data set: MTT viability assay, 72 h. The format is cell-based. Here is the method:
(§1) In vitro tests were performed with human colorectal cancer SW480 cells (purchased from the American Type Culture Collection, Manassas, VA, USA), SW480/Tria, and the SW480/Coti cells, which are previously established sublines that are resistant to Triapine and COTI-2 [16], respectively. Additionally, small-cell lung carcinoma GLC-4 and its subline GLC-4/adr, which is a doxorubicin-resistant subline overexpressing ABCC1 (purchased from Dr. […], Groningen, The Netherlands), were used. All cells were maintained in a humidified 5% CO2 incubator at 37 °C and grown in minimal essential medium or RPMI-1640, respectively, supplemented with 10% fetal bovine serum (FBS). In order to maintain the resistant phenotype of GLC-4/adr cells, they were selected with doxorubicin (1152 nM) once a month. All cell lines were tested for mycoplasma contamination. For the cytotoxicity, cell viability, and proliferation studies, the 3-(4,5-dimethylthiazol-2-yl)-2,5-diphenyltetrazolium bromide (MTT) assay was utilized. Cells were seeded in 96-well plates at a density of 2 × 10^4 cells/well, with the exception of SW480/Tria, which was used at a density of 3 × 10^4 cells/well. After 24 h of recovery, cells were treated with the indicated concentration of drugs. For the drug combination experiments, verapamil and cyclosporine A (CSA) were used as ABCC1 modulators, and tetrathiomolybdate (TTM) was used as a copper chelator. The TSCs were dissolved in DMSO followed by subsequent dilutions in the medium in order to maintain a final DMSO concentration of <1%. After 72 h, the treatment solution was removed and replaced with 100 μL of MTT solution (EZ4U, Biomedica, Vienna, Austria), which was diluted 1:10 in the growth medium. A TECAN Infinite 200 Pro plate reader was used to measure the absorbance of the solution after 2-3 h incubation at 5% CO2 in an incubator at 37 °C. The anticancer activity was determined with GraphPad Prism software and indicated as IC50 values (half maximum inhibitory concentration).

The test system of data set [2] is GLC-4 cells. Kind of data set: MTT viability assay, 72 h. The conditions noted are these: Homo sapiens, GLC4. It counts as cell-based. Here is the method:
as §1
A general note: Formazan colour is commonly taken as a measure of viable cells.

The test system of data set [3] is SW480/Coti cells. As to the kind of experiment: MTT viability assay, 72 h. The format is cell-based, human. The conditions noted are these: for IC50: Homo sapiens, SW480, 72 h, MTT. Here is the method:
as §1

Data set [4] deals with SW480 cells. As to the kind of experiment: MTT viability assay, 72 h. The format is cell-based, human. The conditions noted are these: for IC50: Homo sapiens, SW480, MTT; for enhancement of cytotoxicity by copper complexation: copper complex vs. ligand. Here is the method:
as §1

The test system of data set [5] is SW480/Tria cells. As to the kind of experiment: MTT viability assay, 72 h. The format is cell-based, human. The conditions noted are these: for IC50: Homo sapiens, SW480, 72 h, MTT; for Relative Resistance SW480/Tria: IC50 of resistant subline divided by IC50 of parental SW480. Here is the method:
as §1

Data set [6] is described as follows: pKa by UV-vis spectrophotometric titrations. The format is physicochemical. The conditions noted are these: 30% (v/v) DMSO/H2O solution, I = 0.1 M (KCl), 25 °C. Here is the method:
(§2) The UV-vis spectra were recorded using an Agilent Cary 8454 diode array spectrophotometer in the 200 to 950 nm window, and the path length was varied between 1 and 5 cm, depending on the solubility (thus the applicable concentration). For the spectrophotometric titrations, the same instruments (Metrohm 665 Dosimat burette, Orion 710A pH-meter, Metrohm combined pH glass electrode) and experimental setup (ionic strength: 0.10 M (KCl); titrant: 0.10 M carbonate-free KOH solution in 30% (v/v) DMSO/H2O; samples: prepared in 30% (v/v) DMSO/H2O; calibration: method of Irving et al.; pH range: 1.0 to 13.5; and sample volume: 10 cm^3) were used as in our previous work. Argon overpressure was used for the Fe(II)-containing samples when the Fe(II) stock solution was added to the samples in tightly closed titration vessels, which were previously completely deoxygenated (for 20 min). Measurements were taken with ligands (10–80 μM, depending on solubility) in the presence of 1, 0.5, and 0.3 equiv. of Cu(II), Fe(II), and Fe(III) ions. Equilibrium constants, such as the proton dissociation constants (pKa) of the ligands, the overall stability constants (logβ) of the metal complexes, and the UV-vis spectra of the individual ligand or complex species were computed using the program PSEQUAD [18], as was the case in our previous works.

The nature of data set [7]: Copper(II) complex formation, UV-vis titrations and EDTA competition. The format is physicochemical. The note with it: for pCu: calculated at cM = 1 μM, cL = 10 μM, pH = 7.40; for logβ5.9′ [CuL]^+: conditional stability constant, EDTA competition at pH = 5.90; for logβ [CuL]^+: β = β’ × αH, [H+] = 10^–5.90 M. Here is the method: as §2
The conditional stability constants (β’) of the Cu(II) complexes were calculated from competition reactions with EDTA at pH = 5.9 using MES (50 mM) when the metal:ligand ratio was 1:1 (clig = cCu between 10 and 80 μM). Individual samples were prepared in which the ligand:EDTA ratio was variable between 1:0 and 1:50. After a 3 h incubation period, UV-vis spectra were collected. The calculation of the β’ (CuL) values was performed following the same method as that in our previous work using the logβ’5.90 = 13.89 of complex [Cu(EDTA)]^2− obtained from the previously reported equilibrium constants of EDTA and its Cu(II) complex.

Data set [8] concerns SW480 cells. As to the kind of experiment: Cell cycle analysis by PI staining and flow cytometry. The conditions noted are these: 24 h. The format is cell-based, human. Here is the method: The cell cycle phases were analyzed by staining the DNA of ethanol-fixed cells with PI, as previously described. SW480 and SW480/Coti cells were seeded at a density of, 2 × 10^5 cells/well in 6-well plates and treated with the indicated concentrations of COTI-2 and COTI-NMe2 for 24 h. Then, cells were collected by trypsinization and fixed in cold 70% ethanol. In order to digest RNA, the cells were treated with RNase (0.2 mg/mL, Sigma) and, subsequently, DNA was stained with PI (1 µg/mL). Fluorescence was measured by flow cytometry (FACS Calibur, Becton Dickinson, Ashland, CA, USA) and cell cycle phases were analyzed using Cell Quest Pro software.
In general terms: A flow cytometer gives signals particle by particle.

Molecules are shown by their SMILES. Read-outs that look alike come from different tables or passages of the source.

Consider `CN(C)C(=S)NN=C1CCCc2cccnc21` (mixture of isomers) [COTI-NMe2, 2-(6,7-Dihydroquinolin-8(5H)-ylidene)-N^4,N^4-dimethylhydrazine-1-carbothioamide], for which the 50% inhibitory concentration (IC50) in data set [1] was determined as 0.06 ± 0.03 µM; in data set [2], 0.03 ± 0.03 µM; in data set [3], 0.05 ± 0.03 µM; in data set [4] (72 h) it was 0.04 ± 0.01 µM; in data set [5], 0.04 ± 0.02 µM. The “Relative Resistance SW480/Coti” value in data set [3] (IC50 of resistant subline divided by IC50 of parental SW480) is on record as 1.3 ^n.s. Moreover, the “lower IC50 value than the other tested COTI-2 derivatives” value in data set [4] (SW480 cells) is reported as ~ 10 fold. The “lower IC50 value than COTI-2” value in data set [4] (SW480 cells, 72 h) is listed as 11 fold. In addition, in data set [5], the “Relative Resistance SW480/Tria” value was 1.0 ^n.s. Further, the pKa in data set [6] (read-out: pKa (H2L)) came out at 3.65 ± 0.01; in data set [6] (read-out: pKa (HL)), 12.09 ± 0.01. The pCu in data set [7] is 14.7. In addition, the “logβ5.9′ [CuL]^+” value in data set [7] was 12.23 ± 0.05. The “logβ [CuL]^+” value in data set [7] is 18.42. In addition, the “effect on G2/M population” value in data set [8] is recorded as “significant reduction in the G2/M population”.

For the compound `S=C(N/N=C1\CCCc2cccnc21)N1CCN(c2ccccn2)CC1` [COTI-2, 4-(pyridine-2-yl)-N-([(8E)-5,6,7,8-tetrahydroquinolin-8-ylidene]amino)piperazine-1-carbothioamide], the half-maximal inhibitory concentration (IC50) in data set [4] (72 h) amounted to 0.37 ± 0.17 µM. For the same compound, the “enhancement of cytotoxicity by copper complexation” value in data set [4] (SW480 cells, 72 h) was 7–8 fold. In addition, the “Relative Resistance SW480/Tria” value in data set [5] is 1.1 ^n.s. Besides, the pKa in data set [6] (read-out: pKa (H2L)) came to 5.08 ± 0.01; in data set [6] (read-out: pKa (H3L)) it was 3.23 ± 0.01; in data set [6] (read-out: pKa (HL)) it was 10.97 ± 0.01. In addition, in data set [7], the pCu is listed as 15.6. Besides, the “logβ5.9′ [CuL]^+” value in data set [7] is 13.06 ± 0.02. In data set [7], the “logβ [CuL]^+” value is 18.19. For the same compound, the “effect on G2/M population” value in data set [8] was “significant reduction in the G2/M population”.

With `CN(C(=S)N/N=C1\CCCc2cccnc21)C1CCCCC1` [COTI-NMeCy, N-Cyclohexyl-2-(6,7-dihydroquinolin-8(5H)-ylidene)-N^4-methylhydrazine-1-carbothioamide], the IC50 was determined as 0.54 ± 0.15 µM in data set [1]; 0.17 ± 0.1 µM in data set [2]; 3.98 ± 0.4 µM in data set [3]; 0.64 ± 0.1 µM in data set [4] (72 h); 0.71 ± 0.17 µM in data set [5]. For the same compound, the “enhancement of cytotoxicity by copper complexation” value in data set [4] (SW480 cells, 72 h) is given as 7–8 fold. Moreover, the “Relative Resistance SW480/Tria” value in data set [5] is on record as 1.1 ^n.s. Also, the pKa came to 3.47 ± 0.01 in data set [6] (read-out: pKa (H2L)) and 12.4 ± 0.01 in data set [6] (read-out: pKa (HL)). Further, the pCu in data set [7] is 15.0. The “logβ5.9′ [CuL]^+” value in data set [7] is 12.56 ± 0.09. The “logβ [CuL]^+” value in data set [7] is on record as 19.08.

By IC50 is commonly meant the concentration needed to halve the response being measured.
